Laboratory results as given in PubChem BioAssay AID248 (DTP/NCI, 2004).
“And” between values parts separate entries of the source, which are not always exact repeats. Equal values may be shown once. Toxic doses and inconclusive results are not listed. Cut-off read from the data, not from the text of the source: active = T/C of 150% or more; inactive = T/C below 125%.

Tested on: L1210 leukemia ip in BDF1 mice, survival T/C
Test: NCI In Vivo Anticancer Drug Screen. Data for tumor model L1210 Leukemia (intraperitoneal) in B6D2F1 (BDF1) mice
Conditions: endpoint: mean survival time, higher = longer survival
Procedure, shortened: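 In this screen, tumor-bearing mice given compound are compared to those given vehicle, and their survival values are reported as a treated-to-control quotient.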

[1] = dose: 50.0 mg/kg/injection, schedule: Q01DX001 (ip), vehicle: saline
[2] = dose: 100.0 mg/kg/injection, schedule: Q01DX001 (ip), vehicle: saline
[3] = dose: 200.0 mg/kg/injection, schedule: Q01DX001 (ip), vehicle: saline
[4] = dose: 400.0 mg/kg/injection, schedule: Q01DX001 (ip), vehicle: saline
[5] = dose: 100.0 mg/kg/injection, schedule: Q04DX003 (ip), vehicle: saline
[6] = dose: 400.0 mg/kg/injection, schedule: Q04DX003 (ip), vehicle: saline
[7] = dose: 200.0 mg/kg/injection, schedule: Q04DX003 (ip), vehicle: saline
[8] = dose: 100.0 mg/kg/injection, schedule: Q01DX009 (ip), vehicle: saline with Tween-80
[9] = dose: 100.0 mg/kg/injection, schedule: Q04DX003 (ip), vehicle: saline with Tween-80
[10] = dose: 200.0 mg/kg/injection, schedule: Q01DX009 (ip), vehicle: saline with Tween-80
[11] = dose: 200.0 mg/kg/injection, schedule: Q04DX003 (ip), vehicle: saline with Tween-80
[12] = dose: 400.0 mg/kg/injection, schedule: Q01DX009 (ip), vehicle: saline with Tween-80
[13] = dose: 400.0 mg/kg/injection, schedule: Q04DX003 (ip), vehicle: saline with Tween-80
[14] = dose: 100.0 mg/kg/injection, schedule: Q04DX002 (ip), vehicle: saline with Tween-80
[15] = dose: 200.0 mg/kg/injection, schedule: Q04DX002 (ip), vehicle: saline with Tween-80
[16] = dose: 400.0 mg/kg/injection, schedule: Q04DX002 (ip), vehicle: saline with Tween-80
[17] = dose: 100.0 mg/kg/injection, schedule: Q01DX001 (ip), vehicle: other

Measured: T/C

O=C(Nc1ccccc1)Oc1c(Cl)cc(Cl)cc1Cl
inactive: dose: 0.78 mg/kg/injection, schedule: Q04DX002 (ip), vehicle: Klucel (hydroxypropylcellulose) (HPC) 97 % of control | dose: 1.56 mg/kg/injection, schedule: Q04DX002 (ip), vehicle: Klucel (hydroxypropylcellulose) (HPC) 112 % of control | dose: 3.13 mg/kg/injection, schedule: Q04DX002 (ip), vehicle: Klucel (hydroxypropylcellulose) (HPC) 94 % of control | dose: 6.25 mg/kg/injection, schedule: Q04DX002 (ip), vehicle: Klucel (hydroxypropylcellulose) (HPC) 92 % of control | dose: 12.5 mg/kg/injection, schedule: Q04DX002 (ip), vehicle: Klucel (hydroxypropylcellulose) (HPC) 110 % of control | dose: 25.0 mg/kg/injection, schedule: Q04DX002 (ip), vehicle: Klucel (hydroxypropylcellulose) (HPC) 95 % of control

O=S(=O)(O)Nc1ccc(S(=O)(=O)O)c2ccccc12
inactive: [1] 102 % of control | [2] 93 % of control | [3] 96 % of control | [4] 98 % of control

CC1Cn2ccc(=O)nc2S1 (stereo not given)
inactive: [1] 112 % of control | [2] 110 % of control | [3] 105 % of control

ClCCN1CCN(CCCN2c3ccccc3CCc3ccccc32)CC1
inactive: dose: 12.5 mg/kg/injection, schedule: Q04DX003 (ip), vehicle: saline 106 % of control | dose: 25.0 mg/kg/injection, schedule: Q04DX003 (ip), vehicle: saline 94 % of control | dose: 50.0 mg/kg/injection, schedule: Q04DX003 (ip), vehicle: saline 114 % of control | [5] 102 % of control and 110 % of control | dose: 150.0 mg/kg/injection, schedule: Q04DX003 (ip), vehicle: saline 93 % of control | dose: 225.0 mg/kg/injection, schedule: Q04DX003 (ip), vehicle: saline 103 % of control | dose: 335.0 mg/kg/injection, schedule: Q04DX003 (ip), vehicle: saline 93 % of control and 109 % of control | [6] 101 % of control

Cc1nc(N)sc1N=Nc1cc(Br)ccc1Br
inactive: dose: 75.0 mg/kg/injection, schedule: Q01DX001 (ip), vehicle: saline 97 % of control | dose: 150.0 mg/kg/injection, schedule: Q01DX001 (ip), vehicle: saline 114 % of control

CC(=O)N1N=C(c2ccccc2)CC1C1CC(c2ccccc2)=NN1C(C)=O (stereo not given)
inactive: [2] 102 % of control | [3] 100 % of control | [4] 102 % of control

C=C(Br)CN1C(=O)c2ccccc2C1=O
inactive: dose: 100.0 mg/kg/injection, schedule: Q01DX009 (ip), vehicle: saline 89 % of control | [5] 101 % of control | dose: 200.0 mg/kg/injection, schedule: Q01DX009 (ip), vehicle: saline 112 % of control | [7] 104 % of control | dose: 400.0 mg/kg/injection, schedule: Q01DX009 (ip), vehicle: saline 87 % of control | [6] 93 % of control

CCOC(=O)c1ccc(NC(=O)Oc2cc(C)ccc2C(C)C)cc1
inactive: dose: 100.0 mg/kg/injection, schedule: Q01DX009 (ip), vehicle: Klucel (hydroxypropylcellulose) (HPC) 94 % of control | dose: 200.0 mg/kg/injection, schedule: Q01DX009 (ip), vehicle: Klucel (hydroxypropylcellulose) (HPC) 94 % of control | dose: 400.0 mg/kg/injection, schedule: Q01DX009 (ip), vehicle: Klucel (hydroxypropylcellulose) (HPC) 94 % of control

C=C(C)C1CCC2(C(=O)O)CCC3(C)C(CCC4C5(C)CCC(=O)C(C)(C)C5CCC43C)C12 (stereo not given)
inactive: dose: 100.0 mg/kg/injection, schedule: Q04DX003 (ip), vehicle: Klucel (hydroxypropylcellulose) (HPC) 102 % of control | dose: 200.0 mg/kg/injection, schedule: Q04DX003 (ip), vehicle: Klucel (hydroxypropylcellulose) (HPC) 96 % of control | dose: 400.0 mg/kg/injection, schedule: Q04DX003 (ip), vehicle: Klucel (hydroxypropylcellulose) (HPC) 94 % of control

O=C(Nc1ccccc1)Nc1ccc(F)cc1
inactive: [8] 100 % of control | [9] 101 % of control | [10] 94 % of control | [11] 99 % of control | [12] 96 % of control | [13] 105 % of control

CCCCCCCCCCOc1ccc2ccccc2c1
inactive: [9] 100 % of control | [11] 94 % of control | [13] 91 % of control

Cc1ccc(NC2OC(CO)C(O)C(O)C2O)cc1 (stereo not given)
inactive: dose: 75.0 mg/kg/injection, schedule: Q01DX001 (ip), vehicle: steriod suspending solution 99 % of control | dose: 150.0 mg/kg/injection, schedule: Q01DX001 (ip), vehicle: steriod suspending solution 94 % of control | dose: 300.0 mg/kg/injection, schedule: Q01DX001 (ip), vehicle: steriod suspending solution 94 % of control

O=C(O)c1ccc(Br)o1
inactive: [14] 104 % of control | [15] 97 % of control | [16] 95 % of control

CCOC(=O)N=C=S
inactive: [5] 95 % of control | [7] 103 % of control | [6] 95 % of control

CCCCCCCCNCCCCCCCC
inactive: dose: 4.62 mg/kg/injection, schedule: Q01DX009 (ip), vehicle: gum acacia 101 % of control | dose: 5.0 mg/kg/injection, schedule: Q01DX001 (ip), vehicle: other 95 % of control | dose: 9.25 mg/kg/injection, schedule: Q01DX009 (ip), vehicle: gum acacia 94 % of control | dose: 10.0 mg/kg/injection, schedule: Q01DX001 (ip), vehicle: other 95 % of control | dose: 18.5 mg/kg/injection, schedule: Q01DX009 (ip), vehicle: gum acacia 95 % of control | dose: 20.0 mg/kg/injection, schedule: Q01DX001 (ip), vehicle: other 90 % of control | dose: 37.0 mg/kg/injection, schedule: Q01DX009 (ip), vehicle: gum acacia 97 % of control | dose: 40.0 mg/kg/injection, schedule: Q01DX001 (ip), vehicle: other 93 % of control | dose: 80.0 mg/kg/injection, schedule: Q01DX001 (ip), vehicle: other 90 % of control | [17] 100 % of control

O=C(NC1C=CCCC1)NC1C=CCCC1 (stereo not given)
inactive: dose: 50.0 mg/kg/injection, schedule: Q01DX001 (ip), vehicle: other 88 % of control | [17] 94 % of control | dose: 200.0 mg/kg/injection, schedule: Q01DX001 (ip), vehicle: other 97 % of control | dose: 400.0 mg/kg/injection, schedule: Q01DX001 (ip), vehicle: other 94 % of control

O=[N+]([O-])c1cc2cnn(CO)c2cc1[N+](=O)[O-]
inactive: [2] 95 % of control | [3] 95 % of control | [4] 100 % of control

CSc1ccc(NC(=O)Nc2cccc(Cl)c2C)cc1
inactive: dose: 50.0 mg/kg/injection, schedule: Q04DX003 (ip), vehicle: saline with Tween-80 94 % of control | [8] 96 % of control and 101 % of control | [14] 93 % of control and 104 % of control | [9] 92 % of control | [10] 100 % of control and 104 % of control | [15] 93 % of control and 97 % of control | [11] 87 % of control | [12] 104 % of control and 106 % of control | [16] 107 % of control and 88 % of control | [13] 88 % of control

CC1(C)N=C(N)N=C(N)N1c1cccc(OCc2cccc(N)c2)c1
inactive: dose: 5.0 mg/kg/injection, schedule: Q01DX001 (ip), vehicle: saline 98 % of control | dose: 10.0 mg/kg/injection, schedule: Q01DX001 (ip), vehicle: saline 101 % of control | dose: 20.0 mg/kg/injection, schedule: Q01DX001 (ip), vehicle: saline 96 % of control | dose: 40.0 mg/kg/injection, schedule: Q01DX001 (ip), vehicle: saline 93 % of control | dose: 80.0 mg/kg/injection, schedule: Q01DX001 (ip), vehicle: saline 113 % of control

CN(C)N=Nc1nn(C2OC(CO)C(O)C2O)cc1C(N)=O (stereo not given)
inactive: dose: 100.0 mg/kg/injection, schedule: Q01DX005 (ip), vehicle: saline 121 % of control | dose: 200.0 mg/kg/injection, schedule: Q01DX005 (ip), vehicle: saline 113 % of control
